According to patent US9365522B2, “Pyrazole amide derivative” (AMGEN INC., priority 2015, dated 2016):

Molecular target: T1, ligand binding domain of human ROR gamma (Homo sapiens, UniProt P51449)
T1 construct: NM_001001523; expressed in transfected cells; host or cells: HEK293T
T1 sequence (P51449 247-497 isoform P51449-2): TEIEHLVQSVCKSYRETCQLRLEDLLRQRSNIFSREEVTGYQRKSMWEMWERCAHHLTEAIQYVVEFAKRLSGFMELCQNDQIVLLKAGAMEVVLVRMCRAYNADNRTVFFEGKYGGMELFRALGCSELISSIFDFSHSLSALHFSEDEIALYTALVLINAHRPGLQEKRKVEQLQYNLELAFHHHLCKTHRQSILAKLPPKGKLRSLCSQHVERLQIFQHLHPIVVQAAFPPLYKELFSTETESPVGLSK
Assay: ROR gamma reporter gene assay (GAL4-RORγ LBD luciferase, Dual-Glo)
Format: cell-based
Conditions: HEK293T cells transfected with pM-ROR gamma, 8 concentrations 3.5 nM to 10.5 μM, 24 h incubation; read-out: result (pIC50, inhibition of RORγ transcriptional activity) (converted)
Method in brief: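 Transient GAL4-RORγ LBD (aa 247-497) / 5×UAS-luc / pRL-CMV cotransfection in HEK293T, charcoal-stripped 10% FBS. 8-pt dose, 3.5 nM–10.5 μM, 0.075% DMSO final. 24 h, 37 °C, 5% CO2. Dual-Glo firefly/renilla readout; pIC50 from curve fit.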

SMILES	IC50
O=C(CN(Cc1cc(F)cc(F)c1)C(=O)c1cnn([C@H]2CC[C@H](C(=O)O)CC2)c1C(F)(F)F)c1c(F)cc(F)cc1Cl [Example 179, trans-4-(4-((2-(2-chloro-4,6-difluorophenyl)-2-oxoethyl)-((3,5-difluorophenyl)methyl)carbamoyl)-5-(trifluoromethyl)pyrazol-1-yl)cyclohexane-1-carboxylic acid]	52500 pM
O=C(CN(C(=O)c1cnn([C@H]2CC[C@H](C(=O)O)CC2)c1C(F)(F)F)C1Cc2ccccc2C1)c1c(Cl)cncc1Cl [Example 180, trans-4-(4-((2-(3,5-dichloropyridin-4-yl)-2-oxoethyl)-(2,3-dihydro-1H-inden-2-yl)carbamoyl)-5-(trifluoromethyl)pyrazol-1-yl)cyclohexane-1-carboxylic acid]	112000 pM
O=C(CN(C(=O)c1cnn([C@H]2CC[C@H](C(=O)O)CC2)c1C(F)(F)F)C1CCOCC1)c1c(Cl)cncc1Cl [Example 181, trans-4-(4-((2-(3,5-dichloropyridin-4-yl)-2-oxoethyl)-(oxan-4-yl)carbamoyl)-5-(trifluoromethyl)pyrazol-1-yl)cyclohexane-1-carboxylic acid]	> 1e+07 pM
O=C(CN(C(=O)c1cnn([C@H]2CC[C@H](C(=O)O)CC2)c1C(F)(F)F)C1CCC2(CC1)CC2)c1c(Cl)cncc1Cl [Example 182, trans-4-(4-((2-(3,5-dichloropyridin-4-yl)-2-oxoethyl)-spiro[2,5]octan-6-ylcarbamoyl)-5-(trifluoromethyl)pyrazol-1-yl)cyclohexane-1-carboxylic acid]	66100 pM
CC1(C)CC[C@H](N(CC(=O)c2c(Cl)cncc2Cl)C(=O)c2cnn([C@H]3CC[C@H](C(=O)O)CC3)c2C(F)(F)F)C1 [Example 183, trans-4-(4-((2-(3,5-dichloropyridin-4-yl)-2-oxoethyl)-((1S)-3,3-dimethylcyclopentyl)carbamoyl)-5-(trifluoromethyl)pyrazol-1-yl)cyclohexane-1-carboxylic acid]	174000 pM
CC1(C)CC[C@H](N(CC(=O)c2c(Cl)cncc2Cl)C(=O)c2cnn([C@H]3CC[C@H](C(=O)O)CC3)c2C(F)(F)F)C1 [Example 184, trans-4-(4-((2-(3,5-dichloropyridin-4-yl)-2-oxoethyl)-((1S)-3,3-dimethylcyclopentyl)carbamoyl)-5-(trifluoromethyl)pyrazol-1-yl)cyclohexane-1-carboxylic acid]	162000 pM
O=C(CN(C(=O)c1cnn([C@H]2CC[C@H](C(=O)O)CC2)c1C(F)(F)F)C1CCCC1)c1c(Cl)cncc1Cl [Example 185, trans-4-(4-(cyclopentyl-(2-(3,5-dichloropyridin-4-yl)-2-oxoethyl)carbamoyl)-5-(trifluoromethyl)pyrazol-1-yl)cyclohexane-1-carboxylic acid]	1.82e+06 pM
CC(C)(C)CN(CC(=O)c1c(Cl)cncc1Cl)C(=O)c1cnn([C@H]2CC[C@](C)(C(=O)O)CC2)c1C(F)(F)F [Example 186, trans-4-(4-((2-(3,5-dichloropyridin-4-yl)-2-oxoethyl)-(2,2-dimethylpropyl)carbamoyl)-5-(trifluoromethyl)pyrazol-1-yl)-1-methylcyclohexane-1-carboxylic acid]	26900 pM
CC(C1CCCC1)N(CC(=O)c1c(Cl)cncc1Cl)C(=O)c1cnn([C@H]2CC[C@H](C(=O)O)CC2)c1C(F)(F)F (stereo partly drawn) [Example 187, trans-4-(4-(1-cyclopentylethyl-(2-(3,5-dichloropyridin-4-yl)-2-oxoethyl)carbamoyl)-5-(trifluoromethyl)pyrazol-1-yl)cyclohexane-1-carboxylic acid]	224000 pM
COc1cncc(Cl)c1C(=O)CN(Cc1ccc(F)cc1)C(=O)c1cnn([C@H]2CC[C@H](C(=O)O)CC2)c1C(F)(F)F [Example 188, trans-4-(4-((2-(3-chloro-5-methoxypyridin-4-yl)-2-oxoethyl)-((4-fluorophenyl)methyl)carbamoyl)-5-(trifluoromethyl)pyrazol-1-yl)cyclohexane-1-carboxylic acid]	275000 pM
CC1(C)CCC(N(CC(=O)c2c(Cl)cc(Cl)cc2Cl)C(=O)c2cnn([C@H]3CC[C@H](C(=O)O)CC3)c2C(F)(F)F)CC1 [Example 189, trans-4-(4-((4,4-dimethylcyclohexyl)-(2-oxo-2-(2,4,6-trichlorophenyl)ethyl)carbamoyl)-5-(trifluoromethyl)pyrazol-1-yl)cyclohexane-1-carboxylic acid]	30200 pM
CC1(C)CCC(N(CC(=O)c2c(Cl)cc(F)cc2Cl)C(=O)c2cnn([C@H]3CC[C@](C)(C(=O)O)CC3)c2C(F)(F)F)CC1 [Example 190, trans-4-(4-((2-(2,6-dichloro-4-fluorophenyl)-2-oxoethyl)-(4,4-dimethylcyclohexyl)carbamoyl)-5-(trifluoromethyl)pyrazol-1-yl)-1-methylcyclohexane-1-carboxylic acid]	8320 pM
CC1(C)CCC(N(CC(=O)c2c(Cl)cc(Cl)cc2Cl)C(=O)c2cnn([C@H]3CC[C@](C)(C(=O)O)CC3)c2C(F)(F)F)CC1 [Example 191, trans-4-(4-((4,4-dimethylcyclohexyl)-(2-oxo-2-(2,4,6-trichlorophenyl)ethyl)carbamoyl)-5-(trifluoromethyl)pyrazol-1-yl)-1-methylcyclohexane-1-carboxylic acid]	8910 pM
CC12CCC(CN(CC(=O)c3c(Cl)cncc3Cl)C(=O)c3cnn([C@H]4CC[C@H](C(=O)O)CC4)c3C(F)(F)F)(CC1)C2 [Example 192, trans-4-(4-((2-(3,5-dichloropyridin-4-yl)-2-oxoethyl)-((1-methyl-4-bicyclo[2.2.1]heptanyl)methyl)carbamoyl)-5-(trifluoromethyl)pyrazol-1-yl)cyclohexane-1-carboxylic acid]	11700 pM
CC12CCC(CN(CC(=O)c3c(Cl)cc(F)cc3Cl)C(=O)c3cnn([C@H]4CC[C@H](C(=O)O)CC4)c3C(F)(F)F)(CC1)C2 [Example 193, trans-4-(4-((2-(2,6-dichloro-4-fluorophenyl)-2-oxoethyl)-((1-methyl-4-bicycio[2.2.1]heptanyl)methyl)carbamoyl)-5-(trifluoromethyl)pyrazol-1-yl)cyclohexane-1-carboxylic acid]	6460 pM
O=C(CN(CC1(F)CCCC1)C(=O)c1cnn([C@H]2CC[C@H](C(=O)O)CC2)c1C(F)(F)F)c1c(Cl)cncc1Cl [Example 194, trans-4-(4-((2-(3,5-dichloropyridin-4-yl)-2-oxoethyl)-((1-fluorocyclopentyl)methyl)carbamoyl)-5-(trifluoromethyl)pyrazol-1-yl)cyclohexane-1-carboxylic acid]	14100 pM
O=C(CN(Cc1ccc(F)cc1)C(=O)c1cnn([C@H]2CC[C@H](C(=O)O)CC2)c1C(F)(F)F)c1c(Cl)cc[nH]c1=O [Example 195, trans-4-(4-((2-(4-chloro-2-oxo-1H-pyridin-3-yl)-2-oxoethyl)-((4-fluorophenyl)methyl)carbamoyl)-5-(trifluoromethyl)pyrazol-1-yl)cyclohexane-1-carboxylic acid]	> 1e+07 pM
